These are literature values, as cited in US12350277B2, “Compositions and methods of use for treating aberrant inflammation in peri-ocular secretory glands or at the ocular surface” (CS Pharmaceuticals Limited, priority 2017, dated 2025).

The series concerns NFκB pathway. Conditions: A549, HeLa, MG63, 16HBE, and H9 cell lines; IL-1β / TNFα stimulation; cited from earlier work.

Turning to `CCC(=O)O[C@]1(C(=O)SCF)[C@H](C)C[C@H]2[C@@H]3C[C@H](F)C4=CC(=O)C=C[C@]4(C)[C@@]3(F)[C@@H](O)C[C@@]21C` [FP, fluticasone propionate, reference compound], the “transrepression of NFκB pathway activation (IL-6, IL-8 release)” value was “potently and efficiently transrepress”.
